The term IC50 denotes the midpoint of a concentration-inhibition curve.

The test system of one test is A549. As to the kind of experiment: Antiproliferative activity against human A549 cells assessed as inhibition of cell growth incubated for 48 hrs by MTT assay. The following applies: A549, 48 h. It counts as functional, cell-based. (Tetrazolium dyes change colour on reduction, which living cells bring about.)
Another test concerns BGC-823. As to the kind of experiment: Antiproliferative activity against human BGC-823 cells assessed as inhibition of cell growth incubated for 48 hrs by MTT assay. In kind it is functional, cell-based. The following applies: BGC-823, 48 h.
In another test the test system is CT26. As to the kind of experiment: Antiproliferative activity against mouse CT26 cells assessed as inhibition of cell growth incubated for 48 hrs by MTT assay. It counts as functional, cell-based. The following applies: CT26, 48 h.
The next test relates to Bel-7402. As to the kind of experiment: Antiproliferative activity against human Bel-7402 cells assessed as inhibition of cell growth incubated for 48 hrs by MTT assay. It counts as functional, cell-based. The following applies: Bel-7402, 48 h.
A further test deals with MCF7. As to the kind of experiment: Antiproliferative activity against human MCF7 cells assessed as inhibition of cell growth incubated for 48 hrs by MTT assay. It counts as functional, cell-based. The conditions noted are these: MCF7, 48 h.
The next test relates to Chorioallantoic membrane. Put plainly: Antiangiogenic activity in chicken embryo chorioallantoic membrane assessed as decrease in microvessel density incubated for 48 hrs by microscopic analysis. The conditions noted are these: Gallus gallus. It counts as functional, tissue-based.
Test [1] concerns the target Vascular endothelial growth factor receptor 2 (Mus musculus) (UniProt P35918). Put plainly: Inhibition of VEGFR2 autophosphorylation in mouse BEND3 cells incubated for 2 hrs by Western blotting analysis. It counts as cell-based. On the technique in general: In western blotting, separated proteins are transferred to a membrane and probed.

Chain of Vascular endothelial growth factor receptor 2 (Mus musculus) (P35918 whole entry): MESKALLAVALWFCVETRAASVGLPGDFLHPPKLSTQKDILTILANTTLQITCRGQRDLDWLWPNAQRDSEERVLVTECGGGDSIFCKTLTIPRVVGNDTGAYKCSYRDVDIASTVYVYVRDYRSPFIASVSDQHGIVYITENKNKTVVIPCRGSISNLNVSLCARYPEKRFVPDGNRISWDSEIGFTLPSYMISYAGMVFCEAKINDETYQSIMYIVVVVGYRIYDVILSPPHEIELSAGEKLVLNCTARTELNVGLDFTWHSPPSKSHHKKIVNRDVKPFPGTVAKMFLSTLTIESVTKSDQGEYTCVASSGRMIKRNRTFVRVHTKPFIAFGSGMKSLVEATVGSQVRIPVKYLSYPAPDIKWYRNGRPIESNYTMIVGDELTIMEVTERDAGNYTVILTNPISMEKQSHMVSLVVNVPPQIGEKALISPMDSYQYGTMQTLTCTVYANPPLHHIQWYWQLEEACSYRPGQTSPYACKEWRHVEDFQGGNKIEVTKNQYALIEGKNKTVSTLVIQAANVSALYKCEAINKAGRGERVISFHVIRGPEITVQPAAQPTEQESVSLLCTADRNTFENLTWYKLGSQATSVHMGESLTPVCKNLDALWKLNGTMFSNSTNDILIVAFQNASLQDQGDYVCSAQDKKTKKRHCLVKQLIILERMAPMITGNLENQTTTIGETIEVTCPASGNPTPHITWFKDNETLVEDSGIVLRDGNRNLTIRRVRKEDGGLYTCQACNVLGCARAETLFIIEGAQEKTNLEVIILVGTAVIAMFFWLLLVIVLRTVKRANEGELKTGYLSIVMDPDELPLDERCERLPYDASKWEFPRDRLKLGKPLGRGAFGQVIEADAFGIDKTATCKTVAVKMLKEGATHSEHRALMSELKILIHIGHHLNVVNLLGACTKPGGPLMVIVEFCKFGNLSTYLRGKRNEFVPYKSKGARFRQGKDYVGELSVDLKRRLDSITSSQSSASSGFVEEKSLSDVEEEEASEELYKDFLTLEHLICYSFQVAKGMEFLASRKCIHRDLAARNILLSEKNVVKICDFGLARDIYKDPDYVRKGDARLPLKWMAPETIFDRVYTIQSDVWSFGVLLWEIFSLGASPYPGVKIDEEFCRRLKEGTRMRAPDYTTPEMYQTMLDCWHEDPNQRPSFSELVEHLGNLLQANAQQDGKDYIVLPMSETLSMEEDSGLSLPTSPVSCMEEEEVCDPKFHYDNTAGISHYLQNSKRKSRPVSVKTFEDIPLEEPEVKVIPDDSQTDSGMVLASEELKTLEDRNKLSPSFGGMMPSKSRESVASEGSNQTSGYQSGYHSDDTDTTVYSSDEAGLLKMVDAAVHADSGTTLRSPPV

For `CN(C)CCn1cc2cc3c4ccccc4n(Cc4ccccc4)c3c[n+]2c1`, the IC50 in the test on A549 is 11.7 µM; in the test with BGC-823, 2.8 µM; in the test on CT26, 8.9 µM; in the test on Bel-7402, 8.3 µM; with MCF7, 4.6 µM.
The like results for `CCCCn1c2ccccc2c2cc3cn(-c4ccccc4)c[n+]3cc21` were, in that order, 14.3 µM, 8.5 µM, 1.1 µM, 3.2 µM and 15.6 µM.
Regarding `Cn1c2ccccc2c2cc3cn(-c4cccc(C(F)(F)F)c4)c[n+]3cc21`, the IC50 in the test on A549 was 21.8 µM; in the test on BGC-823, 17.6 µM; in the test on CT26, 8.2 µM; in the test with Bel-7402, 10.9 µM; with MCF7, 19.9 µM.
As for `CN(C)CCn1cc2cc3c4ccccc4n(CCCc4ccccc4)c3c[n+]2c1`, the IC50 in the test on A549 amounted to 10.6 µM; with BGC-823 it was 13.1 µM; with CT26, 3.8 µM; in the test with Bel-7402 it was 8.4 µM; in the test with MCF7, 1.5 µM.
Consider `Cn1c2ccccc2c2cc3cn(-c4cc(F)cc(F)c4)c[n+]3cc21`, for which the IC50 in the test with A549 was 12.2 µM; in the test on BGC-823, 3.5 µM; in the test with CT26 it was 16.1 µM; in the test on Bel-7402, 19.2 µM; with MCF7, 9.2 µM.
For `Fc1ccc(Cn2c3ccccc3c3cc4cn(-c5ccccc5)c[n+]4cc32)cc1`, the IC50 in the test with A549 amounted to 23.5 µM; in the test on BGC-823, 14.1 µM; with CT26, 4.3 µM; in the test on Bel-7402 it was 15.9 µM; in the test on MCF7, 12.5 µM.
Regarding `FC(F)(F)c1cccc(-n2cc3cc4c5ccccc5n(Cc5cccc(Cl)c5)c4c[n+]3c2)c1`, the IC50 in the test with A549 was found to be 8.5 µM; in the test on BGC-823 it was 10.9 µM; in the test on CT26 it was 17.2 µM; in the test with Bel-7402 it was 5.5 µM; in the test on MCF7, 1.4 µM.
The like results for `Clc1cccc(Cn2c3ccccc3c3cc4cn(Cc5ccccc5)c[n+]4cc32)c1` were, in that order, 22.6 µM, 12.6 µM, 1.3 µM, 10.8 µM and 16.9 µM.
Turning to `COc1ccc(Cn2c3ccccc3c3cc4cn(-c5ccccc5)c[n+]4cc32)cc1`, the IC50 was found to be 14.3 µM in the test on A549; 19.2 µM in the test with BGC-823; 13.3 µM in the test on CT26; 16.8 µM with Bel-7402; 8.8 µM with MCF7.
The like results for `Cn1c2ccccc2c2cc3cn(-c4ccccc4)c[n+]3cc21` were, in that order, 7.8 µM, 12.5 µM, 18.4 µM, 18.3 µM and 20.1 µM.
In the case of `FC(F)(F)c1ccc(-n2cc3cc4c5ccccc5n(Cc5cccc(Cl)c5)c4c[n+]3c2)cc1`, the IC50 in the test on A549 came out at 12.1 µM; in the test with BGC-823 it was 7.5 µM; in the test on CT26, 6.9 µM; in the test on Bel-7402, 21.5 µM; with MCF7, 4.9 µM.
For `FC(F)(F)c1ccc(-n2cc3cc4c5ccccc5n(Cc5ccccc5)c4c[n+]3c2)cc1`, the IC50 in the test on A549 is 23.2 µM; in the test with BGC-823, 1.1 µM; with CT26, 15.9 µM; in the test with Bel-7402, 16.3 µM; with MCF7, 9.1 µM.
As to `CN(C)c1ccc(-n2cc3cc4c5ccccc5n(C)c4c[n+]3c2)cc1`, the IC50 was 15.4 µM in the test with A549; 19.1 µM with BGC-823; 23.5 µM in the test on CT26; 22.5 µM in the test with Bel-7402; 3.8 µM in the test with MCF7.
The like results for `COc1ccc(Cn2c3ccccc3c3cc4cn(-c5ccc(C(F)(F)F)cc5)c[n+]4cc32)cc1` were, in that order, 9.9 µM, 3.5 µM, 22.7 µM, 4.1 µM and 15.7 µM.
The like results for `CCCCn1c2ccccc2c2cc3cn(-c4ccc5ccccc5c4)c[n+]3cc21` were, in that order, 8.3 µM, 14.5 µM, 4.9 µM, 5.7 µM and 12.7 µM.
In the case of `CN(C)c1ccc(-n2cc3cc4c5ccccc5n(Cc5ccccc5)c4c[n+]3c2)cc1`, the IC50 in the test on A549 stood at 7.5 µM; with BGC-823, 7.7 µM; in the test on CT26, 19.4 µM; in the test on Bel-7402, 16.2 µM; with MCF7 it was 14.1 µM.
As for `FC(F)(F)c1cccc(-n2cc3cc4c5ccccc5n(Cc5ccccc5)c4c[n+]3c2)c1`, the half-inhibitory concentration (IC50) in the test on A549 was 20.9 µM; in the test on BGC-823 it was 20.6 µM; with CT26, 7.7 µM; in the test on Bel-7402 it was 3.5 µM; in the test with MCF7, 11.5 µM.
As for `CCCCn1c2ccccc2c2cc3cn(-c4ccc(C(F)(F)F)cc4)c[n+]3cc21`, the IC50 with A549 was 2.4 µM; in the test on BGC-823 it was 1.3 µM; with CT26, 9.8 µM; in the test with Bel-7402, 7.8 µM; with MCF7, 12.1 µM. In addition, the Activity result with Chorioallantoic membrane was “Dose-dependent-effect”. Besides, in test [1], the inhibition result is “Dose-dependent-effect”.
Consider `c1ccc(Cn2c3ccccc3c3cc4cn(-c5ccccc5)c[n+]4cc32)cc1`, for which the IC50 in the test on A549 stood at 6.8 µM; with BGC-823, 4.1 µM; in the test with CT26 it was 7.3 µM; in the test with Bel-7402, 11.6 µM; with MCF7, 5.5 µM.
For the compound `c1ccc(Cn2cc3cc4c5ccccc5n(Cc5ccccc5)c4c[n+]3c2)cc1`, the IC50 in the test on A549 was determined as 21.3 µM; in the test on BGC-823, 3.4 µM; in the test with CT26 it was 15.9 µM; with Bel-7402, 13.2 µM; in the test on MCF7 it was 2.5 µM.
Regarding `FC(F)(F)c1ccc(-n2cc3cc4c5ccccc5n(CCCc5ccccc5)c4c[n+]3c2)cc1`, the IC50 with A549 is 23.9 µM; in the test on BGC-823, 17.5 µM; in the test with CT26 it was 4.8 µM; in the test with Bel-7402, 5.2 µM; in the test on MCF7, 3.3 µM.
As to `CN(C)c1ccc(-n2cc3cc4c5ccccc5n(Cc5cccc(Cl)c5)c4c[n+]3c2)cc1`, the half-inhibitory concentration (IC50) with A549 stood at 12.3 µM; in the test on BGC-823, 11.9 µM; with CT26, 21.1 µM; in the test on Bel-7402 it was 8.1 µM; with MCF7, 7.9 µM.
For the compound `Clc1cccc(Cn2c3ccccc3c3cc4cn(-c5ccccc5)c[n+]4cc32)c1`, the IC50 in the test on A549 is 10.8 µM; in the test with BGC-823 it was 10.5 µM; in the test with CT26 it was 5.8 µM; in the test on Bel-7402, 1.8 µM; with MCF7, 10.3 µM.
In the case of `COc1ccc(Cn2c3ccccc3c3cc4cn(-c5ccc(N(C)C)cc5)c[n+]4cc32)cc1`, the IC50 in the test on A549 came out at 20.1 µM; in the test with BGC-823 it was 7.3 µM; with CT26 it was 11.5 µM; in the test on Bel-7402 it was 22.2 µM; in the test with MCF7, 5.1 µM.

These data come from ChEMBL document CHEMBL6083248, “Synthesis, pharmacological evaluation, and modeling of novel quaternary ammonium salts derived from β-carboline containing an imidazole moiety as angiogenesis inhibitors” (Bioorg Med Chem, 2024).
